Experimental data reported in ChEMBL document CHEMBL5236632, “Membrane-Active Nonivamide Derivatives as Effective Broad-Spectrum Antimicrobials: Rational Design, Synthesis, and Biological Evaluation” (J Med Chem, 2022).
Converted amounts (≈) assume the structure as drawn. The source made the active and inactive calls. No cut-off for these calls is given here.

Columns and labels:
Staphylococcus aureus [1] = experiment: Antibacterial activity against Staphylococcus aureus ATCC 29213 assessed as inhibition of visible growth measured after 18 to 24 hrs by broth dilution method; format: functional; settings: time 18-24 hrs
Staphylococcus aureus [2] = experiment: Antibacterial activity against methicillin-resistant Staphylococcus aureus N315 assessed as inhibition of visible growth measured after 18 to 24 hrs by broth dilution method; format: functional; settings: time 18-24 hrs
[3] = Haemolytic activity in rabbit red blood cells incubated for 60 mins by k multi-mode reader relative to control; format: toxicity, cell-based, Oryctolagus cuniculus, Erythrocyte
[4] = Selectivity ratio, HC50 for hemolytic activity in rabbit RBC to MIC for antibacterial activity against methicillin-resistant Staphylococcus aureus N315; format: toxicity; settings: rabbit red blood cells
Acinetobacter baumannii = experiment: Antibacterial activity against Acinetobacter baumannii R2889 assessed as inhibition of visible growth measured after 18 to 24 hrs by broth dilution method; format: functional; settings: time 18-24 hrs
Klebsiella pneumoniae = experiment: Antibacterial activity against Klebsiella pneumoniae ATCC 14581 assessed as inhibition of visible growth measured after 18 to 24 hrs by broth dilution method; format: functional; settings: time 18-24 hrs
[5] = Selectivity ratio, HC50 for hemolytic activity in rabbit RBC to MIC for antibacterial activity against Acinetobacter baumannii ATCC 17978; format: toxicity; settings: rabbit red blood cells
[6] = Selectivity ratio, HC50 for hemolytic activity in rabbit RBC to MIC for antibacterial activity against Klebsiella pneumoniae ATCC 10031; format: toxicity; settings: rabbit red blood cells
[7] = Selectivity ratio, HC50 for hemolytic activity in rabbit RBC to MIC for antibacterial activity against Klebsiella pneumoniae ATCC 14581; format: toxicity; settings: rabbit red blood cells
Staphylococcus aureus [8] = experiment: Antibacterial activity against methicillin-resistant Staphylococcus aureus N315 assessed as inhibition of visible growth measured after 18 to 24 hrs in presence of 100 ug/ml Ca2+ by broth dilution method; format: functional; settings: time 18-24 hrs
Staphylococcus aureus [9] = experiment: Antibacterial activity against methicillin-resistant Staphylococcus aureus N315 assessed as inhibition of visible growth measured after 18 to 24 hrs in presence of 24.3 ug/ml Mg2+ by broth dilution method; format: functional; settings: time 18-24 hrs
Staphylococcus aureus [10] = experiment: Antibacterial activity against methicillin-resistant Staphylococcus aureus NCTC 10442 assessed as inhibition of visible growth measured after 18 to 24 hrs in presence of 3220 ug/ml Na+ by broth dilution method; format: functional; settings: time 18-24 hrs
Staphylococcus aureus [11] = experiment: Antibacterial activity against methicillin-resistant Staphylococcus aureus NCTC 10442 assessed as inhibition of visible growth measured after 18 to 24 hrs in presence of 175.5 ug/ml K+ by broth dilution method; format: functional; settings: time 18-24 hrs
Staphylococcus aureus [12] = experiment: Antibacterial activity against methicillin-resistant Staphylococcus aureus NCTC 10442 assessed as inhibition of visible growth measured after 18 to 24 hrs in presence of 100 ug/ml Ca2+ by broth dilution method; format: functional; settings: time 18-24 hrs
Staphylococcus aureus [13] = experiment: Antibacterial activity against methicillin-resistant Staphylococcus aureus NCTC 10442 assessed as inhibition of visible growth measured after 18 to 24 hrs in presence of 24.3 ug/ml Mg2+ by broth dilution method; format: functional; settings: time 18-24 hrs
Escherichia coli [14] = experiment: Antibacterial activity against Escherichia coli […] assessed as inhibition of visible growth measured after 18 to 24 hrs in presence of 100 ug/ml Ca2+ by broth dilution method; format: functional; settings: time 18-24 hrs
Escherichia coli [15] = experiment: Antibacterial activity against Escherichia coli […] assessed as inhibition of visible growth measured after 18 to 24 hrs in presence of 24.3 ug/ml Mg2+ by broth dilution method; format: functional; settings: time 18-24 hrs
Escherichia coli [16] = experiment: Antibacterial activity against Escherichia coli ATCC 25922 assessed as reduction in bacterial load at 8 time of MIC measured with in 30 mins by time kill assay; format: functional; settings: 0.5 h
Cell membrane [17] = experiment: Induction of membrane integrity disruption in Escherichia coli ATCC 25922 assessed as increase fluoresence intensity at 4 to 8 times of MIC measured for 60 mins by SYTOX Green uptake assay; format: subcellular
Cell membrane [18] = experiment: Induction of outer membrane permeability in Escherichia coli ATCC 25922 assessed as increase fluoresence intensity at 4 to 8 times of MIC measured for 60 mins by NPN uptake assay; format: subcellular
Cell membrane [19] = experiment: Induction of membrane depolarization in Escherichia coli ATCC 25922 assessed as increase in fluorescence intensity at 4 to 8 times MIC measured for 60 mins by DiSC3(5) dye based fluorescence method; format: subcellular
Staphylococcus aureus [20] = experiment: Antibacterial activity against Staphylococcus aureus ATCC 29213 assessed as fold increase in MIC measured after 18 to 24 hrs in presence of 512 ug/ml LTA/LPS by broth dilution method; format: functional; settings: time 18-24 hrs
Escherichia coli [21] = experiment: Antibacterial activity against Escherichia coli ATCC 25922 assessed as fold increase in MIC measured after 18 to 24 hrs in presence of 512 ug/ml LTA/LPS by broth dilution method; format: functional; settings: time 18-24 hrs
Staphylococcus aureus [22] = experiment: Inhibition of biofilm formation Staphylococcus aureus ATCC 29213 assessed as decrease in biofilm formation at 0.39 ug/ml measured after 24 hrs by crystal violet staining assay; format: functional
Escherichia coli [23] = experiment: Inhibition of biofilm formation Escherichia coli ATCC 25922 assessed as decrease in biofilm formation at 0.39 ug/ml measured after 24 hrs by crystal violet staining assay; format: functional
Escherichia coli [24] = experiment: Inhibition of biofilm formation Escherichia coli ATCC 25922 assessed as decrease in biofilm formation at 3.13 ug/ml measured after 24 hrs by crystal violet staining assay; format: functional
Escherichia coli [25] = experiment: Inhibition of biofilm formation Escherichia coli ATCC 25922 assessed as decrease in biofilm formation at 6.25 ug/ml measured after 24 hrs by crystal violet staining assay; format: functional
Staphylococcus aureus [26] = experiment: Eradication of biofilm in Staphylococcus aureus ATCC 29213 assessed as biofilm viability at 0.39 ug/ml measured after 24 hrs by crystal violet staining assay; format: functional; settings: dose 0.39 µg/ml
Escherichia coli [27] = experiment: Eradication of biofilm in Escherichia coli ATCC 25922 assessed as biofilm viability at […] ug/ml measured after 24 hrs by crystal violet staining assay; format: functional; settings: dose […] microg/ml, 1.56 ug/mL
Escherichia coli [28] = experiment: Eradication of biofilm in Escherichia coli ATCC 25922 assessed as biofilm viability at 6.25 ug/ml measured after 24 hrs by crystal violet staining assay; format: functional; settings: dose 6.25 µg/ml
Escherichia coli [29] = experiment: Eradication of biofilm in Escherichia coli ATCC 25922 assessed as biofilm viability at 25 ug/ml measured after 24 hrs by crystal violet staining assay; format: functional; settings: dose 25 µg/ml
Escherichia coli [30] = experiment: Drug resistance development in Escherichia coli ATCC 25922 assessed as fold change in MIC measured after 20 passages; format: functional
[31] = Cytotoxicity against HEK293 cells assessed as cell viability after 24 hrs incubation byCCK-8 assay; format: toxicity, cell-based; settings: human
Staphylococcus aureus [32] = experiment: In vivo antibacterial activity against Staphylococcus aureus ATCC 29213 infected in C57BL/6 mouse keratitis model assessed as reduction in number of viable bacterial colonies in infected cornea at 5 mg/kg topically 4 times per day for 3 consecutive days; format: functional; settings: route top, time 3 day
Pseudomonas aeruginosa = experiment: In vivo antibacterial activity against Pseudomonas aeruginosa ATCC 9027 infected in C57BL/6 mouse keratitis model assessed as reduction in number of viable bacterial colonies in infected cornea at 5 mg/kg topically 4 times per day for 3 consecutive days; format: functional; settings: route top, time 3 day

Compound: CCCCCCCCC(=O)NCc1ccc(OCCCCCCNC(=N)N)c(OCCCCCCNC(=N)N)c1
- MIC (Staphylococcus aureus [1]): 0.78 µg/mL (≈ 1.39 µM)
- MIC (Staphylococcus aureus [2]): 0.39 µg/mL (≈ 0.694 µM)
- HC5 ([3]; erythrocyte, 1 h): 64.3 µg/mL
- HC50 at 1 h ([3]; rabbit red blood cells): 135 µg/mL
- selectivity ratio [4]: 173
- MIC (Acinetobacter baumannii): 6.25 µg/mL (≈ 11.1 µM)
- MIC (Klebsiella pneumoniae): 1.56 µg/mL (≈ 2.78 µM)
- selectivity ratio [5]: 21.6
- selectivity ratio [6]: 21.6
- selectivity ratio [7]: 21.6
- MIC (Staphylococcus aureus [8]): 0.39 µg/mL
- MIC (Staphylococcus aureus [9]): 0.39 µg/mL
- MIC (Staphylococcus aureus [10]): 0.39 µg/mL
- MIC (Staphylococcus aureus [11]): 0.39 µg/mL
- MIC (Staphylococcus aureus [12]): 0.39 µg/mL
- MIC (Staphylococcus aureus [13]): 0.39 µg/mL
- MIC (Escherichia coli [14]): 3.12 µg/mL
- MIC (Escherichia coli [15]): 1.56 µg/mL
- Activity (Escherichia coli [16]): 4.56 log10CFU/ml
- Activity (Cell membrane [17]): Active
- Activity (Cell membrane [18]): Dose-Dependent Effect
- Activity (Cell membrane [19]): Active
- fold change (FC) (Staphylococcus aureus [20]): 8
- fold change (FC) (Escherichia coli [21]): 16
- inhibition at 0.39 µg/mL (Staphylococcus aureus [22]): 97.8%
- inhibition at 0.39 µg/mL (Escherichia coli [23]): 85.1%
- inhibition at 3.13 µg/mL (Escherichia coli [24]): 106%
- inhibition at 6.25 µg/mL (Escherichia coli [25]): 109%
- Activity (Staphylococcus aureus [26]): 73.22%
- Activity (Escherichia coli [27]): 93.71%
- Activity (Escherichia coli [28]): 22.66%
- Activity (Escherichia coli [29]): 7.05%
- fold change (FC) (Escherichia coli [30]): <4
- CC50 at 24 h [31]: 27.8 µg/mL (≈ 49.5 µM)
- Activity (Staphylococcus aureus [32]): 6.5 log10CFU/ml
- Activity (Pseudomonas aeruginosa): 4.69 log10CFU/ml
